Our source for the minimal effective concentration values is article PMC7377239, “Cardiovascular Effects of Polychlorinated Biphenyls and Their Major Metabolites” (Environmental Health Perspectives, 2020).

The test system of assay [1] is iCell endothelial cells (human iPSC-derived ECs). Briefly: Tube formation (tubulogenesis) assay in iCell endothelial cells, 18 h. Format: cell-based. The note with it: Homo sapiens, Endothelial cell, endothelial cells (endo), 18 hr. The essentials:
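Tube formation was measured by calcein AM imaging after overnight compound exposure (37°C, 0.5% DMSO vehicle) of human iPSC-derived ECs, 7,500/well, on reduced-growth-factor Geltrex in starvation medium. Vehicle-normalized data fitted to four-parameter logistic; POD set at one vehicle SD; without response, 100 μM taken as NOAEL.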

In a further assay the test system is HUVECs. Briefly: High-content imaging cytotoxicity in HUVECs, 24 h. It counts as cell-based, human. As to conditions: Homo sapiens, HUVEC, 24 h, HUVEC, 24 hr. The essentials:
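Confluent HUVEC monolayers, passages 1–5, received test chemicals for 24 h. Cytotoxicity was scored from triple-stain high-content images, with PODs defined by a one-SD deviation from 0.5% DMSO vehicle controls.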

[2] abbreviates: tube formation mtl, read-out: POD endo.mtl.18hr.
[3] abbreviates: tube formation tlps, read-out: POD endo.tlps.18hr.
Where [4] appears, read: tube formation tta, read-out: POD endo.tta.18hr.
[5] abbreviates: tube formation ttl, read-out: POD endo.ttl.18hr.
Setting [6] is: cyto, read-out: POD huvec.cyto.24hr.
The mark [7] stands for this setting: mito, read-out: POD huvec.mito.24hr.
Setting [8] is: mitoint, read-out: POD huvec.mitoint.24hr.
Setting [9] is: nma, read-out: POD huvec.nma.24hr.
Setting [10] is: tc, read-out: POD huvec.tc.24hr.

Each structure is given as a SMILES string. Read-outs that look alike come from different tables or passages of the source.

For `Oc1cccc(-c2ccc(Cl)cc2)c1` [3'-OH-PCB 3], the minimal effective concentration in assay [1] (setting [2]) stood at 0.36 µM; in assay [1] (setting [3]) it was 1.03 µM; in assay [1] (setting [4]), 0.49 µM; in assay [1] (setting [5]), 0.51 µM; in the assay with HUVECs (setting [6]), 1.1 µM; in the assay with HUVECs (setting [7]), 0.97 µM. Also, the minimal effective concentration in the assay on HUVECs (setting [8]) amounted to 41.4 µM; in the assay with HUVECs (setting [9]), 0.04 µM; in the assay with HUVECs (setting [10]), 1.1 µM.

As for `Clc1ccc(-c2cc(Cl)c(Cl)c(Cl)c2)cc1Cl` [PCB 126, 3,3′,4,4′,5-pentachlorobiphenyl], the minimal effective concentration in assay [1] (setting [2]) is 28.1 µM; in assay [1] (setting [3]) it was 4.68 µM; in assay [1] (setting [4]) it was 25.7 µM; in assay [1] (setting [5]), 38.9 µM; in the assay on HUVECs (setting [6]) it was 5.33 µM; with HUVECs (setting [7]), 100 µM. The figures for the minimal effective concentration in the assay with HUVECs (setting [8]), in the assay with HUVECs (setting [9]) and in the assay with HUVECs (setting [10]) were 100 µM, 100 µM and 5.33 µM, respectively.
